{"source": "patent US9676997B2", "about": "“Compositions and methods for stabilizing luminogenic substrates” (Promega Corporation, priority 2014, dated 2017)", "key": {"[1]": {"test": "Stability of 1.25 mM coelenterazine in 50% ethanol and 50% propylene glycol with or without 225 mM ATT, HPLC and Arrhenius plots", "type": "physicochemical", "settings": "for half-life at 1.25 mM: solution of 50% ethanol and 50% propylene glycol", "description": "The stability of coelenterazine in the presence and absence of ATT was measured over time at different temperatures. Specifically, 1.25 mM coelenterazine was present in a solution of 50% ethanol and 50% propylene glycol (i.e., the solution without ATT) or a solution of 50% ethanol and 50% propylene glycol with 225 mM ATT (i.e., the solution with ATT). These two solutions were incubated at −20° C., room temperature (RT), 40° C., or 60° C. and analyzed at 0 days, 1 day, 3 days, 7 days, 15 days, and 30 days.\nFollowing incubation, high performance liquid chromatography (HPLC) was utilized to identify the components of the respective solutions at each time point. Specifically, an Agilent 1100 HPLC instrument was used and equipped with a quaternary pump, thermostatted autosampler and column compartment, and a G1311B diode-array detector. The column used was a Synergi-MAX-RP (Phenomenex, Torrance, Calif.) 100 AÅ 50×4.6 2.5 μm. The run on the HPLC was a gradient run with 0.1% TFA in water and acetonitrile. Absorbance was measured at 262 nanometers (nm). Standards of coelenterazine and its known degradants were run to confirm both the retention time and absorbance trace. 5 μl of each solution was injected and the retention time of coelenterazine was 3.9 minutes at room temperature.\nThe results of the HPLC analysis are shown below in Tables 1 and 2 and FIGS. 1A and 1B, in which the values are reported as relative peak area percentage at 262 nm (i.e., the lamba max of the substrate). […] In each of FIGS. 1A and 1B, diamond is 1.25 mM coelenterazine incubated over time with or without 225 mM ATT, respectively, at −20° C., triangle is 1.25 mM coelenterazine incubated over time with or without 225 mM ATT, respectively, at room temperature (RT), star is 1.25 mM coelenterazine incubated over time with or without 225 mM ATT, respectively, at 40° C., and cross is 1.25 mM coelenterazine incubated over time with or without 225 mM ATT, respectively, at 60° C.\nFrom the HPLC analysis, the half-life of coelenterazine in the presence of ATT at 40° C. and 60° C. was calculated to be 23 days and 5 days, respectively, while the half-life of coelenterazine in the absence of ATT at 40° C. and 60° C. was calculated to be 9.5 days and 2 days, respectively (see Table 3 below).\nAdditionally, Arrhenius plots were generated for coelenterazine in the presence and absence of ATT to calculate the half-life of coelenterazine at various temperatures. The Arrhenius equation is as follows: […]\nIn FIG. 7, the slope was −8636.59, the intercept was 24.1199, and R^2 was 0.9983.\nIn FIG. 8, the slope was −7382.51, the intercept was 21.2598, and R^2 was 0.9570."}, "[2]": {"test": "Stability of 2.3 mM furimazine at 37° C. in the dark with or without 200 mM thionucleoside, luminescence with NANOLUC enzyme", "type": "physicochemical", "settings": "50% propylene glycol:50% ethanol", "description": "Specifically, a stock solution of furimazine in 50% propylene glycol:50% ethanol (v/v) was prepared, in which the final concentration of furimazine by absorbance was 4.6 mM. The furimazine stock solution was then diluted 1:1 in 50% propylene glycol:50% ethanol (v/v) to create a control solution without the additives ATT, TAK-0014 and TAK-0002 (i.e., “no additive furimazine” control) and containing 2.3 mM furimazine. 400 mM stock solutions of ATT, TAK-0014 and TAK-0002 were prepared in 50% propylene glycol:50% ethanol (v/v). Each of the ATT, TAK-0014 and TAK-0002 stock solutions was then diluted 1:1 in the 4.6 mM furimazine stock solution to yield solutions containing 200 mM ATT, TAK-0014 or TAK-0002, and 2.3 mM furimazine.\nEach sample was separated into multiple amber tubes and incubated at 37° C. in a dark incubator (i.e., in the absence of light). Aliquots were taken from each sample at various time points and stored at −20° C. in the dark (i.e., in the absence of light) until all time points were collected.\nTo measure luminescence in the aliquots, each aliquot was diluted 1:50 in buffer (NANOGLO buffer, Promega Corporation) to yield 46 μM furimazine. These diluted aliquots were further diluted 1:10 in buffer (NANOGLO buffer, Promega Corporation) to yield 4.6 μM furimazine. 504 of each dilution (i.e., the twice diluted (0.1) aliquots) was mixed with 504, of CO2-independent media+10% fetal bovine serum (FBS) and 0.4 ng/mL luminogenic enzyme (NANOLUC enzyme, Promega Corporation). Luminescence was measured on a luminometer (GLOMAX Multi Plus luminometer, Promega Corporation). Relative light units (RLUs) were normalized for each time point by the RLU value at the 0 days time point. The percent activity from the 0 days time point (i.e., t=0) was plotted against time (days) for each sample as shown in FIG. 15A. In FIG. 15A, B-ATT denoted TAK-0002 and E-ATT denoted TAK-0014.\nError in Table 15 was the standard error from a regression calculation and Fz denoted furimazine, B-ATT denoted TAK-0002, and E-ATT denoted TAK-0014."}, "[3]": {"settings": "decomposition of coelenterazine"}}, "note": "Read-outs that look alike come from different tables or passages of the source.", "data": [{"smiles": "O=c1c(Cc2ccc(O)cc2)nc2c(Cc3ccccc3)[nH]c(-c3ccc(O)cc3)cn1-2", "note": "[Coelenterazine (27-957-28), coelenterazine]", "values": [{"measurement": "relative peak area percentage at 262 nm", "setting": "[1]; 40° C., 0 days", "value": 96.5, "unit": "%"}, {"measurement": "relative peak area percentage at 262 nm", "setting": "[1]; 40° C., 1 day", "value": 92.2, "unit": "%"}, {"measurement": "relative peak area percentage at 262 nm", "setting": "[1]; 40° C., 3 days", "value": 84.9, "unit": "%"}, {"measurement": "relative peak area percentage at 262 nm", "setting": "[1]; 40° C., 15 days", "value": 12.6, "unit": "%"}, {"measurement": "relative peak area percentage at 262 nm", "setting": "[1]; 60° C., 0 days", "value": 96.5, "unit": "%"}, {"measurement": "relative peak area percentage at 262 nm", "setting": "[1]; 60° C., 1 day", "value": 79.6, "unit": "%"}, {"measurement": "relative peak area percentage at 262 nm", "setting": "[1]; 60° C., 3 days", "value": 36.8, "unit": "%"}, {"measurement": "relative peak area percentage at 262 nm", "setting": "[1]; RT, 0 days", "value": 96.5, "unit": "%"}, {"measurement": "relative peak area percentage at 262 nm", "setting": "[1]; RT, 1 day", "value": 96.1, "unit": "%"}, {"measurement": "relative peak area percentage at 262 nm", "setting": "[1]; RT, 3 days", "value": 94.0, "unit": "%"}, {"measurement": "relative peak area percentage at 262 nm", "setting": "[1]; RT, 7 days", "value": 91.0, "unit": "%"}, {"measurement": "relative peak area percentage at 262 nm", "setting": "[1]; RT, 15 days", "value": 87.4, "unit": "%"}, {"measurement": "relative peak area percentage at 262 nm", "setting": "[1]; RT, 30 days", "value": 57.7, "unit": "%"}, {"measurement": "Arrhenius plot intercept", "setting": "[1]; [3]", "value": 21.2598}, {"measurement": "Arrhenius plot slope", "setting": "[1]; [3]", "value": "−7382.51"}, {"measurement": "half-life at 1.25 mM", "setting": "[1]; 20° C., read-out: T1/2 Calculated from Arrhenius (converted)", "value": 852, "unit": "h"}, {"measurement": "half-life at 1.25 mM", "setting": "[1]; 40° C., read-out: T1/2 Calculated from Arrhenius (converted)", "value": 170, "unit": "h"}, {"measurement": "half-life at 1.25 mM", "setting": "[1]; 40° C., read-out: T1/2 Estimated from graph (converted)", "value": 228, "unit": "h"}, {"measurement": "half-life at 1.25 mM", "setting": "[1]; 60° C., read-out: T1/2 Calculated from Arrhenius (converted)", "value": 40.8, "unit": "h"}, {"measurement": "half-life at 1.25 mM", "setting": "[1]; 60° C., read-out: T1/2 Estimated from graph (converted)", "value": 48, "unit": "h"}, {"measurement": "half-life at 1.25 mM", "setting": "[1]; −20° C., read-out: T1/2 Calculated from Arrhenius (converted)", "value": 46500, "unit": "h"}, {"measurement": "relative peak area percentage at 262 nm", "setting": "[1]; −20° C., 0 days", "value": 96.5, "unit": "%"}, {"measurement": "relative peak area percentage at 262 nm", "setting": "[1]; −20° C., 1 day", "value": 97.2, "unit": "%"}, {"measurement": "relative peak area percentage at 262 nm", "setting": "[1]; −20° C., 3 days", "value": 96.4, "unit": "%"}, {"measurement": "relative peak area percentage at 262 nm", "setting": "[1]; −20° C., 7 days", "value": 96.5, "unit": "%"}, {"measurement": "relative peak area percentage at 262 nm", "setting": "[1]; −20° C., 15 days", "value": 96.5, "unit": "%"}, {"measurement": "relative peak area percentage at 262 nm", "setting": "[1]; −20° C., 30 days", "value": 86.2, "unit": "%"}]}, {"smiles": "O=c1[nH]c(=S)[nH]nc1Cc1ccccc1", "note": "[TAK-0002, 6-benzyl-3-sulfanyl-1,2,4-triazin-5-ol]", "values": [{"measurement": "stabilization of furimazine against decomposition in the absence of light", "setting": "[2]", "value": "stabilized furimazine against decomposition in the absence of light"}]}, {"smiles": "CCc1n[nH]c(=S)[nH]c1=O", "note": "[TAK-0014]", "values": [{"measurement": "stabilization of furimazine against decomposition in the absence of light", "setting": "[2]", "value": "stabilized furimazine against decomposition in the absence of light"}]}]}
